IC50 data for 13 compounds are collected here from US20230041743A1, “1,8-NAPHTHYRIDIN-2-ONE COMPOUNDS FOR THE TREATMENT OF AUTOIMMUNE DISEASE” (Hoffmann-La Roche Inc., priority 2019, published 2023).

SMILES strings stand for the structures.

The target in the test is T1, human TLR8 (Homo sapiens, UniProt Q9NR97).
T1 construct: host or cells: HEK293 (HEK-Blue hTLR8)
T1 sequence (Q9NR97 27-1041): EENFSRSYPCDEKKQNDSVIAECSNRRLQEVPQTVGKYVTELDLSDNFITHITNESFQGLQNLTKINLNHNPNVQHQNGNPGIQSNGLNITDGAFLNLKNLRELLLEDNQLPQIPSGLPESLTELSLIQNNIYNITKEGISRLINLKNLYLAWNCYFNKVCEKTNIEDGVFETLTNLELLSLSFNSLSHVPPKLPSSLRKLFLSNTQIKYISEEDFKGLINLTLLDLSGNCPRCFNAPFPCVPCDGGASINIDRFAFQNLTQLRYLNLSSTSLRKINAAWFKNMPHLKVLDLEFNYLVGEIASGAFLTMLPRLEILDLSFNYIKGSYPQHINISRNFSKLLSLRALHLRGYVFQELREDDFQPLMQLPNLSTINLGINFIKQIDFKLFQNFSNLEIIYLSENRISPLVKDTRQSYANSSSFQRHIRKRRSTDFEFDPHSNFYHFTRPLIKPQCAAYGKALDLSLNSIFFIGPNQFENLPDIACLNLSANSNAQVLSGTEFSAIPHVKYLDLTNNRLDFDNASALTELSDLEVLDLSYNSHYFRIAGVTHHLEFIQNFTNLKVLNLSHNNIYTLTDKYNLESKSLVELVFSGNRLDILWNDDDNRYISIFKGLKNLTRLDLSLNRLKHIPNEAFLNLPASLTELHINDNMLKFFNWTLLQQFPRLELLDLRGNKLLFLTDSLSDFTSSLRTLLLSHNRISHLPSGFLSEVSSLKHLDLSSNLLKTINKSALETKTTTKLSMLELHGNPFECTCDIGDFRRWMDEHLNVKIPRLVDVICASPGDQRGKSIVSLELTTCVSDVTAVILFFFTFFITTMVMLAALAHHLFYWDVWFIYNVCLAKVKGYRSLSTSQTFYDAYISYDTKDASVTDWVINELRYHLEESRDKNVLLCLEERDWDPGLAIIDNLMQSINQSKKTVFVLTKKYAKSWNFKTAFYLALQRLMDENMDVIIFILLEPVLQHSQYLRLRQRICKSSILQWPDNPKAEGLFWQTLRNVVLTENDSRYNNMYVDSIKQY
Put plainly: HEK293-Blue-hTLR-8 cells assay (SEAP reporter, R848 stimulation). The conditions noted are these: HEK293-Blue-hTLR8 cells, R848 ligand, 20 hrs incubation; read-out: HEK/hTLR8 IC50. The class given is cell-based. The source says: HEK293-Blue-hTLR-8 Cells Assay:
A stable HEK293-Blue-hTLR-8 cell line was purchased from InvivoGen (Cat. #: hkb-htlr8, San Diego, Calif., USA). These cells were originally designed for studying the stimulation of human TLR8 by monitoring the activation of NF-κB. A SEAP (secreted embryonic alkaline phosphatase) reporter gene was placed under the control of the IFN-β minimal promoter fused to five NF-κB and AP-1-binding sites. The SEAP was induced by activating NF-κB and AP-1 via stimulating HEK-Blue hTLR8 cells with TLR8 ligands. Therefore the reporter expression was declined by TLR8 antagonist under the stimulation of a ligand, such as R848, for incubation of 20 hrs. The cell culture supernatant SEAP reporter activity was determined using QUANTI-Blue™ kit (Cat. #: rep-qb1, Invivogen, San Diego, Ca, USA) at a wavelength of 640 nm, a detection medium that turns purple or blue in the presence of alkaline phosphatase.
HEK293-Blue-hTLR8 cells were incubated at a density of 250,000-450,000 cells/mL in a volume of 170 μL in a 96-well plate in Dulbecco's Modified Eagle's medium (DMEM) containing 4.5 g/L glucose, 50 U/mL penicillin, […], […], 2 mM L-glutamine, 10% (v/v) heat-inactivated fetal bovine serum with addition of 20 μL test compound in a serial dilution in the presence of final DMSO at 1% and 10 μL of 60 uM R848 in above DMEM, perform incubation under 37° C. in a CO2 incubator for 20 hrs. Then 20 μL of the supernatant from each well was incubated with 180 μL Quanti-blue substrate solution at 37° C. for 2 hrs and the absorbance was read at 620-655 nm using a spectrophotometer. The signaling pathway that TLR8 activation leads to downstream NF-κB activation has been widely accepted, and therefore similar reporter assay was modified for evaluating TLR8 antagonist.
Turning to `C[C@@H]1CN(c2cc(=O)n(C)c3ncccc23)C[C@@H]2c3ccc(N4C[C@@H]5C[C@H]4CN5)cc3CN12` [Example 19, 4-[(4R,10bS)-8-[(1S,4S)-2,5-diazabicyclo[2.2.1]heptan-2-yl]-4-methyl-3,4,6,10b-tetrahydro-1H-pyrazino[2,1-a]isoindol-2-yl]-1-methyl-1,8-naphthyridin-2-one], the IC50 came to 11.3 nM.
To `C[C@@H]1CN(c2cc(=O)n(C)c3ncccc23)C[C@@H]2c3ccc(N4C[C@H]5C[C@@H]4CN5)cc3CN12` [Example 20, 4-[(4R,10bS)-8-[(1R,4R)-2,5-diazabicyclo[2.2.1]heptan-2-yl]-4-methyl-3,4,6,10b-tetrahydro-1H-pyrazino[2,1-a]isoindol-2-yl]-1-methyl-1,8-naphthyridin-2-one] belongs 4.5 nM.
To `C[C@@H]1CN(c2cc(=O)n(C)c3ncccc23)C[C@@H]2c3ccc(N4CC5CCC(C4)N5)cc3CN12` [Example 21, 4-[(4R,10bS)-8-(3,8-diazabicyclo[3.2.1]octan-3-yl)-4-methyl-3,4,6,10b-tetrahydro-1H-pyrazino[2,1-a]isoindol-2-yl]-1-methyl-1,8-naphthyridin-2-one] belongs 1.8 nM.
As for `C[C@@H]1CN(c2cc(=O)n(C)c3ncccc23)C[C@@H]2c3ccc(N4CCOC[C@H](N)C4)cc3CN12` [Example 22, 4-[(4R,10bS)-8-[(6R)-6-amino-1,4-oxazepan-4-yl]-4-methyl-3,4,6,10b-tetrahydro-1H-pyrazino[2,1-a]isoindol-2-yl]-1-methyl-1,8-naphthyridin-2-one], the figure is 4.9 nM.
Take `C[C@@H]1CN(c2cc(=O)n(C)c3ncccc23)C[C@@H]2c3ccc(OCCN(C)C)cc3CN12` [Example 23, 4-[(4R,10bS)-8-[2-(dimethylamino)ethoxy]-4-methyl-3,4,6,10b-tetrahydro-1H-pyrazino[2,1-a]isoindol-2-yl]-1-methyl-1,8-naphthyridin-2-one]: the IC50 came to 1 nM.
With `C[C@@H]1CN(c2cc(=O)n(C)c3ncccc23)C[C@@H]2c3ccc(C4CCNCC4)cc3CN12` [Example 24, 4-[(4R,10bS)-4-methyl-8-(4-piperidyl)-3,4,6,10b-tetrahydro-1H-pyrazino[2,1-a]isoindol-2-yl]-1-methyl-1,8-naphthyridin-2-one], the IC50 was determined as 1.4 nM.
To `C[C@@H]1CN(c2cc(=O)n(C)c3ncccc23)C[C@@H]2c3ccc(C4CCCNC4)cc3CN12` (stereo partly drawn) [Example 25, 4-[(4R,10bS)-4-methyl-8-(3-piperidyl)-3,4,6,10b-tetrahydro-1H-pyrazino[2,1-a]isoindol-2-yl]-1-methyl-1,8-naphthyridin-2-one] belongs 2.6 nM; to `C[C@@H]1CN(c2cc(=O)n(C)c3ncccc23)C[C@@H]2c3ccc(C4CCNC4)cc3CN12` (stereo partly drawn) [Example 26, 4-[(4R,10bS)-4-methyl-8-pyrrolidin-3-yl-3,4,6,10b-tetrahydro-1H-pyrazino[2,1-a]isoindol-2-yl]-1-methyl-1,8-naphthyridin-2-one], 6.5 nM.
Regarding `C[C@@H]1CN(c2cc(=O)n(C)c3ncccc23)C[C@@H]2c3ccc([C@H]4CC[C@H](N5CCOCC5)CC4)cc3CN12` [Example 27A, 4-[(4R,10bS)-4-methyl-8-(trans-4-morpholinocyclohexyl)-3,4,6,10b-tetrahydro-1H-pyrazino[2,1-a]isoindol-2-yl]-1-methyl-1,8-naphthyridin-2-one], the IC50 was 2 nM.
To `C[C@@H]1CN(c2cc(=O)n(C)c3ncccc23)C[C@@H]2c3ccc([C@H]4CC[C@@H](N5CCOCC5)CC4)cc3CN12` [Example 27B, 4-[(4R,10bS)-4-methyl-8-(cis-4-morpholinocyclohexyl)-3,4,6,10b-tetrahydro-1H-pyrazino[2,1-a]isoindol-2-yl]-1-methyl-1,8-naphthyridin-2-one] belongs 10 nM.
As for `C[C@@H]1CN(c2cc(=O)n(C)c3ncccc23)C[C@@H]2c3ccc([C@H]4C[C@H]5COC[C@@H](C4)N5)cc3CN12` [Example 28A, 4-[(4R,10bS)-4-methyl-8-(endo-3-oxa-9-azabicyclo[3.3.1]nonan-7-yl)-3,4,6,10b-tetrahydro-1H-pyrazino[2,1-a]isoindol-2-yl]-1-methyl-1,8-naphthyridin-2-one], the figure is 1.7 nM; as for `C[C@@H]1CN(c2cc(=O)n(C)c3ncccc23)C[C@@H]2c3ccc([C@@H]4C[C@H]5COC[C@@H](C4)N5)cc3CN12` [Example 28B, 4-[(4R,10bS)-4-methyl-8-(exo-3-oxa-9-azabicyclo[3.3.1]nonan-7-yl)-3,4,6,10b-tetrahydro-1H-pyrazino[2,1-a]isoindol-2-yl]-1-methyl-1,8-naphthyridin-2-one], 4.4 nM; as for `CCn1c(=O)cc(N2C[C@@H](C)N3Cc4cc(N5C[C@@H](N)[C@H](OC)C5)ccc4[C@H]3C2)c2cccnc21` [Example 29, 4-[(4R,10bS)-8-[(3R,4R)-3-amino-4-methoxy-pyrrolidin-1-yl]-4-methyl-3,4,6,10b-tetrahydro-1H-pyrazino[2,1-a]isoindol-2-yl]-1-ethyl-1,8-naphthyridin-2-one], 26.3 nM.
